Tests used:
CAL120 = test: GRmax, 72 h; higher = less effect;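 further: breast cell lines in 384-well plates, nine doses across a 10^4 range, Dye Drop imaging of viable cells vs DMSO and time-zero plates, GR 0 means no net growth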
HCC1954 = test: GRmax, 72 h; higher = less effect;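 further: breast cell lines in 384-well plates, nine doses across a 10^4 range, Dye Drop imaging of viable cells vs DMSO and time-zero plates, GR 0 means no net growth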
MDAMB157 [1] = test: GRmax, 72 h; higher = less effect;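 further: breast cell lines in 384-well plates, nine doses across a 10^4 range, Dye Drop imaging of viable cells vs DMSO and time-zero plates, GR 0 means no net growth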
MDAMB453 = test: GRmax, 72 h; higher = less effect;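 further: breast cell lines in 384-well plates, nine doses across a 10^4 range, Dye Drop imaging of viable cells vs DMSO and time-zero plates, GR 0 means no net growth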
PDX1258 = test: GRmax, 72 h; higher = less effect
HCC1428 = test: area over the GR curve, 72 h; higher = more effect;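 further: Dye Drop or Deep Dye Drop imaging of viable cells in 384-well plates (Hoechst nuclei, LIVE/DEAD dye), nine half-log doses, GR normalized to DMSO controls and time-zero plates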
HCC1500 = test: area over the GR curve, 72 h; higher = more effect;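 further: Dye Drop or Deep Dye Drop imaging of viable cells in 384-well plates (Hoechst nuclei, LIVE/DEAD dye), nine half-log doses, GR normalized to DMSO controls and time-zero plates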
MDAMB157 [2] = test: area over the GR curve, 72 h; higher = more effect;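 further: Dye Drop or Deep Dye Drop imaging of viable cells in 384-well plates (Hoechst nuclei, LIVE/DEAD dye), nine half-log doses, GR normalized to DMSO controls and time-zero plates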

SMILES	GRmax, 72 h (CAL120)	GRmax, 72 h (HCC1954)	GRmax, 72 h (MDAMB157 [1])	GRmax, 72 h (MDAMB453)	GRmax, 72 h (PDX1258)	area over the GR curve (HCC1428)	area over the GR curve (HCC1500)	area over the GR curve (MDAMB157 [2])	GRmax, 72 h (CAL120; main component drawn)	GRmax, 72 h (HCC1954; main component drawn)	GRmax, 72 h (MDAMB157 [1]; main component drawn)	GRmax, 72 h (MDAMB453; main component drawn)	GRmax, 72 h (PDX1258; main component drawn)	area over the GR curve (HCC1428; main component drawn)	area over the GR curve (HCC1500; main component drawn)	area over the GR curve (MDAMB157 [2]; main component drawn)
CC(=O)Nc1cccc(-n2c(=O)n(C3CC3)c(=O)c3c(Nc4ccc(I)cc4F)n(C)c(=O)c(C)c32)c1 (max 1 µM)	0.415 GR	0.229 GR	0.406 GR	0.0489 GR	0.85 GR	0.0695 GR	0.212 GR	0.301 GR								
CCc1cnn2c(NCc3ccc[n+]([O-])c3)cc(N3CCCC[C@H]3CCO)nc12 (max 1 µM)	-0.132 GR	-0.464 GR	-0.911 GR	-0.257 GR	-0.617 GR	0.656 GR	0.662 GR	0.765 GR								
CC(=O)c1c(C)c2cnc(Nc3ccc(N4CCNCC4)cn3)nc2n(C2CCCC2)c1=O (max 3.162 µM)	0.669 GR	0.526 GR	0.975 GR	0.0416 GR	1.02 GR	0.314 GR	0.11 GR	-0.0037 GR								
CCc1cncnc1N1CCN(Cc2nc3ccc(C(F)(F)F)cc3[nH]2)CC1 (max 10 µM)	0.924 GR	0.835 GR	0.11 GR	0.0482 GR	0.775 GR	-0.0224 GR	0.182 GR	0.119 GR								
CCN1CCN(Cc2ccc(Nc3ncc(F)c(-c4cc(F)c5nc(C)n(C(C)C)c5c4)n3)nc2)CC1 (max 10 µM)	-0.141 GR	-0.505 GR	-0.604 GR	-0.765 GR	-0.331 GR	0.636 GR	0.342 GR	0.266 GR								
Cc1nn(C)c(COc2ccc(N3CCN(S(=O)(=O)N(C)C)CC3)cc2)c1-c1cccc2c(CCCOc3cccc4ccccc34)c(C(=O)O)n(CCN3CCOCC3)c12 (max 10 µM)	0.943 GR	0.884 GR	0.788 GR	0.933 GR	0.919 GR	-0.0325 GR	-0.063 GR	0.0057 GR								
CN(C)CC[C@H](CSc1ccccc1)Nc1ccc(S(=O)(=O)NC(=O)c2ccc(N3CCN(Cc4ccccc4-c4ccc(Cl)cc4)CC3)cc2)cc1[N+](=O)[O-] [ABT-737] (max 10 µM)	-0.434 GR	0.496 GR	0.201 GR	0.152 GR	0.758 GR	0.111 GR	1.13 GR	0.0446 GR								
NC(=O)Nc1cc(-c2cccc(F)c2)sc1C(=O)N[C@H]1CCCNC1 [AZD7762] (max 10 µM)	-0.495 GR	-0.398 GR	-0.786 GR	-0.216 GR	-0.453 GR	0.323 GR	0.614 GR	0.984 GR								
Cc1nc(NC(=O)N2CCC[C@H]2C(N)=O)sc1-c1ccnc(C(C)(C)C(F)(F)F)c1 [Alpelisib/BYL719] (max 10 µM)	0.608 GR	-0.341 GR	0.492 GR	-0.307 GR	0.631 GR	0.0107 GR	-0.0097 GR	0.101 GR								
Cc1c(N)nc([C@H](CC(N)=O)NC[C@H](N)C(N)=O)nc1C(=O)N[C@H](C(=O)N[C@H](C)[C@@H](O)[C@H](C)C(=O)N[C@H](C(=O)NCCc1nc(-c2nc(C(=O)NCCC[S+](C)C)cs2)cs1)[C@@H](C)O)[C@@H](OC1OC(CO)C(O)C(O)C1OC1OC(CO)C(O)C(OC(N)=O)C1O)c1cnc[nH]1 (stereo partly drawn) [Bleomycin] (max 10 µM)									0.0886 GR	-0.0884 GR	-0.281 GR	0.0154 GR	0.0721 GR	0.178 GR	0.147 GR	0.281 GR
Nc1cc(C(F)(F)F)c(-c2cc(N3CCOCC3)nc(N3CCOCC3)n2)cn1 [Buparlisib/NVP-BKM120] (max 10 µM)	-0.272 GR	-0.458 GR	-0.641 GR	-0.607 GR	-0.392 GR	0.344 GR	0.512 GR	0.302 GR								
COc1cc2nccc(Oc3ccc(NC(=O)C4(C(=O)Nc5ccc(F)cc5)CC4)cc3)c2cc1OC [Cabozantinib] (max 10 µM)	0.257 GR	0.639 GR	0.149 GR	0.465 GR	0.28 GR	0.0108 GR	-0.0192 GR	0.21 GR								
COc1cc2c(Oc3ccc4[nH]c(C)cc4c3F)ncnc2cc1OCCCN1CCCC1 [Cediranib/AZD2171] (max 10 µM)	-0.124 GR	-0.32 GR	-0.585 GR	-0.689 GR	-0.561 GR	0.189 GR	0.0909 GR	0.349 GR								
Cc1cc(Nc2ncc(Cl)c(Nc3ccccc3S(=O)(=O)C(C)C)n2)c(OC(C)C)cc1C1CCNCC1 [Ceritinib/LDK378] (max 10 µM)	-0.432 GR	-0.445 GR	-0.926 GR	-0.687 GR	-0.684 GR	0.295 GR	0.274 GR	0.46 GR								
Cc1nc(Nc2ncc(C(=O)Nc3c(C)cccc3Cl)s2)cc(N2CCN(CCO)CC2)n1 [Dasatinib] (max 10 µM)	0.176 GR	0.274 GR	0.0683 GR	0.549 GR	-0.134 GR	0.256 GR	0.925 GR	0.518 GR								
COc1cccc2c1C(=O)c1c(O)c3c(c(O)c1C2=O)C[C@@](O)(C(=O)CO)C[C@@H]3O[C@H]1C[C@H](N)[C@H](O)[C@H](C)O1 [Doxorubicin] (max 3.162 µM)	-0.247 GR	-0.338 GR	-0.777 GR	-0.348 GR	-0.493 GR	0.895 GR	0.751 GR	0.966 GR								

Source: the supplement of paper PMC9663587
